From PMC9241945 (Microbiology Spectrum, 2022)

Target: T1, CTP synthase PyrG (Staphylococcus aureus, UniProt A6QIX1)
T1 construct: pyrG from S. aureus Newman in pET-28a, purified on Ni-NTA
Assay: intrinsic fluorescence quenching titration
Assay type: binding

T1 sequence (A6QIX1 whole entry): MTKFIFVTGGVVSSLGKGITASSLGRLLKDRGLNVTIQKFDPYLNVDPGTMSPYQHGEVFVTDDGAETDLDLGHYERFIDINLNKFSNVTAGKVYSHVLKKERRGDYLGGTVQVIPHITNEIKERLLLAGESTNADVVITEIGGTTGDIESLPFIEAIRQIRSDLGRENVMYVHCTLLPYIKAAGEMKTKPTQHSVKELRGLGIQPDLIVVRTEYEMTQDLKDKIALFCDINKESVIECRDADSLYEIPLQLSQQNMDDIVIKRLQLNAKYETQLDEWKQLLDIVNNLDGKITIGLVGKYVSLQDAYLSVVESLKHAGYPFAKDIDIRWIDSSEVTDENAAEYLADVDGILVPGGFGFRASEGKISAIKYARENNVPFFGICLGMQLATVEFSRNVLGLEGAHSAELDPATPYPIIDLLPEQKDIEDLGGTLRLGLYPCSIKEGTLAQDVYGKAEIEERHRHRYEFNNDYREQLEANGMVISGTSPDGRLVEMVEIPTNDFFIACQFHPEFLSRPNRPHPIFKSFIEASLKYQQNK

`Nc1ncnc2c1ncn2[C@@H]1O[C@H](COP(=O)(O)OP(=O)(O)OP(=O)(O)O)[C@@H](O)[C@H]1O` [ATP] was tested. Which Kd did it give?
Its Kd is 320 µM.
